Data from ChEMBL document CHEMBL3588758, “Structure-Affinity Relationships (SARs) and Structure-Kinetics Relationships (SKRs) of Kv11.1 Blockers” (J Med Chem, 2015).

Tests used:
[1] = target: T1, Voltage-gated inwardly rectifying potassium channel KCNH2 (Homo sapiens, UniProt Q12809)
[2] = target: T1, Voltage-gated inwardly rectifying potassium channel KCNH2; remark: listed apart in the source
Kv11.1 (KCNH2, hERG) [3] = target: T2, Kv11.1 (KCNH2, hERG) (Homo sapiens, UniProt Q12809); assay: in vitro
Kv11.1 (KCNH2, hERG) [4] = target: T2, Kv11.1 (KCNH2, hERG); assay: in vitro; remark: listed apart in the source
Kv11.1 (KCNH2, hERG) [5] = target: T2, Kv11.1 (KCNH2, hERG); assay: in vitro; remark: listed apart in the source
[6] = target: T1, Voltage-gated inwardly rectifying potassium channel KCNH2; remark: listed apart in the source
Description: Inhibition of human Kv11.1 expressed in HEK293 cells assessed as inhibition of channel tail current at holding potential -80 mV by whole cell voltage clamp assay

T2 sequence (Q12809 whole entry): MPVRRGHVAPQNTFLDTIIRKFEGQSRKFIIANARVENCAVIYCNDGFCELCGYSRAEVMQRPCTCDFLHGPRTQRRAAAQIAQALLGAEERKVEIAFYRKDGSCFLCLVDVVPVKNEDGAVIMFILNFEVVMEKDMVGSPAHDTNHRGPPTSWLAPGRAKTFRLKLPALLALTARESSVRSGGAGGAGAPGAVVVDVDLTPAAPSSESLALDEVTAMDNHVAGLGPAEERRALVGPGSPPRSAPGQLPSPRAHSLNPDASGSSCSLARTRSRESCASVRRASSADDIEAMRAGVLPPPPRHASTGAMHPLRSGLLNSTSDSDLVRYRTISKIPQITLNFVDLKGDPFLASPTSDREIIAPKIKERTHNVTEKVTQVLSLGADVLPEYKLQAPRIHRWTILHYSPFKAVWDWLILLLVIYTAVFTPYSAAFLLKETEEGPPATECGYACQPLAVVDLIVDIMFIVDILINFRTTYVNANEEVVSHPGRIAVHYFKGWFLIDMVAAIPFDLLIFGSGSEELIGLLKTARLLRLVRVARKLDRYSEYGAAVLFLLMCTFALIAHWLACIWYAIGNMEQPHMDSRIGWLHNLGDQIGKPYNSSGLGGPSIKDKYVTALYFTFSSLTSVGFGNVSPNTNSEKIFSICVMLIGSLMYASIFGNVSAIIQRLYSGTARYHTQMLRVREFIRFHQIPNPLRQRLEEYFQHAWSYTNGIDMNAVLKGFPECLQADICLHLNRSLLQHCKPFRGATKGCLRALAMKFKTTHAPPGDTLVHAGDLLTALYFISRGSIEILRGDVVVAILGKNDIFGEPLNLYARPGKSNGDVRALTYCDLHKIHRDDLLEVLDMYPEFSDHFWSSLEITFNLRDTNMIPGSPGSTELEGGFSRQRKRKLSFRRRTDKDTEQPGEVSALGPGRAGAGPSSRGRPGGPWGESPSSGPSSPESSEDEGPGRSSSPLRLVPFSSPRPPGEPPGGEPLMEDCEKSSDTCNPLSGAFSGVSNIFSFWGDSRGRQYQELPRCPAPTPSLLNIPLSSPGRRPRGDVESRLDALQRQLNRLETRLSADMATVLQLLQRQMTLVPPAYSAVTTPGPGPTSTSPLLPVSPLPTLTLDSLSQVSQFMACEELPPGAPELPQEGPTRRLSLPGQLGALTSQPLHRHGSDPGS
T1 sequence (Q12809 whole entry): as above

SMILES | Ki [1] | Kd [2] | kon (Kv11.1 (KCNH2, hERG) [3]; hek293) | koff (Kv11.1 (KCNH2, hERG) [4]; hek293) | residence time (Kv11.1 (KCNH2, hERG) [5]; hek293) | kon (Kv11.1 (KCNH2, hERG) [3]; hek293, probe [3H]dofetilide) | koff (Kv11.1 (KCNH2, hERG) [4]; hek293, probe [3H]dofetilide) | residence time (Kv11.1 (KCNH2, hERG) [5]; hek293, probe [3H]dofetilide) | IC50 [6]
CCCCCCCCc1cccc(CCCCCCCC)n1 | 36900 nM | 191000 nM | 4.67 M⁻¹ s⁻¹ | 0.000867 s⁻¹ | 19 min |  |  |  | 
C[n+]1c(CCc2ccc(-c3ccccc3)cc2)cccc1CCc1ccc(-c2ccccc2)cc1 | 63 nM | 60 nM |  |  |  | 26700 M⁻¹ s⁻¹ | 0.00163 s⁻¹ | 10 min | 
CCCN(CC)CC#Cc1ccc(C)cc1 | 1200 nM | 637 nM |  |  |  | 5170 M⁻¹ s⁻¹ | 0.0025 s⁻¹ | 6.7 min | 
CCCCCCCCCCC#Cc1cccc(C#CCCCCCCCCCC)[n+]1C | 1180 nM | 4260 nM |  |  |  | 550 M⁻¹ s⁻¹ | 0.002 s⁻¹ | 8.3 min | 
N#CCN(CCOc1ccc([N+](=O)[O-])cc1)CCc1ccc([N+](=O)[O-])cc1 | 203 nM | 99 nM | 76700 M⁻¹ s⁻¹ | 0.00667 s⁻¹ | 2.5 min |  |  |  | 
C(#Cc1cccc(C#Cc2ccc(-c3ccccc3)cc2)n1)c1ccc(-c2ccccc2)cc1 | > 100000 nM |  |  |  |  |  |  |  | 
C[n+]1c(C#Cc2ccc(-c3ccc(Cl)cc3)cc2)cccc1C#Cc1ccc(-c2ccc(Cl)cc2)cc1 | 71 nM | 100 nM | 2670 M⁻¹ s⁻¹ | 0.000267 s⁻¹ | 63 min |  |  |  | 
CCCCCCCc1cccc(CCCCCCC)[n+]1C | 0.28 nM | 0.44 nM |  |  |  | 4.17e+06 M⁻¹ s⁻¹ | 0.00167 s⁻¹ | 10 min | 
C[n+]1c(C#Cc2ccc(-c3cccc(Cl)c3)cc2)cccc1C#Cc1ccc(-c2cccc(Cl)c2)cc1 | 139 nM | 135 nM | 1380 M⁻¹ s⁻¹ | 0.000183 s⁻¹ | 91 min |  |  |  | 
CCCCCCC[N+](CC)(CC)CC#Cc1ccc(Cl)cc1 | 1.8 nM | 1.2 nM | 2.83e+06 M⁻¹ s⁻¹ | 0.00217 s⁻¹ | 7.7 min |  |  |  | 
C[N+]1(CCc2ccccc2)CCC(C(=O)c2ccc(Cl)cc2)CC1 (configuration not stated) | 48 nM | 18 nM | 800000 M⁻¹ s⁻¹ | 0.00583 s⁻¹ | 2.9 min |  |  |  | 
CCCCCCc1cccc(CCCCCC)[n+]1C | 12 nM | 12 nM | 333000 M⁻¹ s⁻¹ | 0.00383 s⁻¹ | 4.3 min |  |  |  | 
CCCCCCCCCCCCc1cccc(CCCCCCCCCCCC)[n+]1C | 108 nM | 153 nM |  |  |  | 3000 M⁻¹ s⁻¹ | 0.000467 s⁻¹ | 36 min | 
COc1ccc(CCN(C)CCOc2ccccc2)cc1 | 944 nM | 591 nM |  |  |  | 9330 M⁻¹ s⁻¹ | 0.005 s⁻¹ | 3.3 min | 
COc1cccc(-c2ccc(C#Cc3cccc(C#Cc4ccc(-c5cccc(OC)c5)cc4)[n+]3C)cc2)c1 | 176 nM | 125 nM | 6170 M⁻¹ s⁻¹ | 0.000783 s⁻¹ | 21 min |  |  |  | 
C[n+]1c(C#Cc2ccc(-c3ccccc3)cc2)cccc1C#Cc1ccc(-c2ccccc2)cc1 | 86 nM | 132 nM | 1250 M⁻¹ s⁻¹ | 0.000158 s⁻¹ | 105 min |  |  |  | 107 nM
Cc1ccc(-c2ccc(C#Cc3cccc(C#Cc4ccc(-c5ccc(C)cc5)cc4)[n+]3C)cc2)cc1 | 303 nM | 440 nM |  |  |  | 1430 M⁻¹ s⁻¹ | 0.00055 s⁻¹ | 30 min | 
CN(CCCCOc1ccc([N+](=O)[O-])cc1)CCc1ccc([N+](=O)[O-])cc1 | 1.6 nM | 0.73 nM | 1.07e+07 M⁻¹ s⁻¹ | 0.00433 s⁻¹ | 3.8 min |  |  |  | 
O=[N+]([O-])c1ccc(CCNCCOc2ccc([N+](=O)[O-])cc2)cc1 | 47 nM | 53 nM | 90000 M⁻¹ s⁻¹ | 0.0045 s⁻¹ | 3.7 min |  |  |  | 
Cc1ccccc1-c1ccc(C#Cc2cccc(C#Cc3ccc(-c4ccccc4C)cc3)[n+]2C)cc1 | 577 nM | 203 nM | 5830 M⁻¹ s⁻¹ | 0.00118 s⁻¹ | 14 min |  |  |  | 
CCCCCCCCCCc1cccc(CCCCCCCCCC)[n+]1C | 17 nM | 37 nM | 28300 M⁻¹ s⁻¹ | 0.00107 s⁻¹ | 16 min |  |  |  | 
CCCCCCCCCc1cccc(CCCCCCCCC)[n+]1C | 3.4 nM | 4 nM |  |  |  | 300000 M⁻¹ s⁻¹ | 0.00115 s⁻¹ | 14 min | 
O=C(c1ccccc1)N1CCN(CCc2ccccc2)CC1 | 5420 nM | 1810 nM |  |  |  | 4500 M⁻¹ s⁻¹ | 0.00767 s⁻¹ | 2.2 min | 
CC(=O)N(CCOc1ccc([N+](=O)[O-])cc1)CCc1ccc([N+](=O)[O-])cc1 | 251 nM | 132 nM |  |  |  | 163000 M⁻¹ s⁻¹ | 0.03 s⁻¹ | 0.56 min | 
CN(CCOc1ccc(Cl)c(Cl)c1)CCc1ccc(Cl)c(Cl)c1 | 5570 nM | 5810 nM |  |  |  | 1030 M⁻¹ s⁻¹ | 0.00317 s⁻¹ | 5.3 min | 
CN(CCOc1ccc([N+](=O)[O-])cc1)CCc1ccc([N+](=O)[O-])cc1 | 24 nM | 20 nM | 683000 M⁻¹ s⁻¹ | 0.0137 s⁻¹ | 1.2 min |  |  |  | 
O=C(c1ccc(Cl)cc1)C1CCN(CCc2ccc(Cl)c(Cl)c2)CC1 | 54 nM | 36 nM | 350000 M⁻¹ s⁻¹ | 0.0065 s⁻¹ | 2.6 min |  |  |  | 
O=C(N(CCOc1ccc([N+](=O)[O-])cc1)CCc1ccc([N+](=O)[O-])cc1)C(F)(F)F | 355 nM | 247 nM | 41700 M⁻¹ s⁻¹ | 0.0102 s⁻¹ | 1.6 min |  |  |  | 
CCN(CCOc1ccc([N+](=O)[O-])cc1)CCc1ccc([N+](=O)[O-])cc1 | 4.2 nM | 3 nM |  |  |  | 2.5e+06 M⁻¹ s⁻¹ | 0.00433 s⁻¹ | 3.8 min | 
C[n+]1c(C#Cc2ccc(-c3ccc(O)cc3)cc2)cccc1C#Cc1ccc(-c2ccc(O)cc2)cc1 | 153 nM | 103 nM |  |  |  | 8500 M⁻¹ s⁻¹ | 0.000883 s⁻¹ | 19 min | 
